From patent US10836789B2, “Inhibitors of glucocorticoid receptor” (ORIC Pharmaceuticals, Inc., priority 2016, dated 2020)

Columns and labels:
GR = target: T1, GR (Homo sapiens, UniProt P04150); experiment: GR luciferase antagonist assay (CHO/GR/MMTV Luciferase cells); assay type: cell-based; conditions: 10 nM Dexamethasone final, 16-18 h
T1 construct: expressed in transfected cells; host or cells: CHO cells carrying GR and an MMTV-luciferase reporter
T1 sequence (P04150 1-777): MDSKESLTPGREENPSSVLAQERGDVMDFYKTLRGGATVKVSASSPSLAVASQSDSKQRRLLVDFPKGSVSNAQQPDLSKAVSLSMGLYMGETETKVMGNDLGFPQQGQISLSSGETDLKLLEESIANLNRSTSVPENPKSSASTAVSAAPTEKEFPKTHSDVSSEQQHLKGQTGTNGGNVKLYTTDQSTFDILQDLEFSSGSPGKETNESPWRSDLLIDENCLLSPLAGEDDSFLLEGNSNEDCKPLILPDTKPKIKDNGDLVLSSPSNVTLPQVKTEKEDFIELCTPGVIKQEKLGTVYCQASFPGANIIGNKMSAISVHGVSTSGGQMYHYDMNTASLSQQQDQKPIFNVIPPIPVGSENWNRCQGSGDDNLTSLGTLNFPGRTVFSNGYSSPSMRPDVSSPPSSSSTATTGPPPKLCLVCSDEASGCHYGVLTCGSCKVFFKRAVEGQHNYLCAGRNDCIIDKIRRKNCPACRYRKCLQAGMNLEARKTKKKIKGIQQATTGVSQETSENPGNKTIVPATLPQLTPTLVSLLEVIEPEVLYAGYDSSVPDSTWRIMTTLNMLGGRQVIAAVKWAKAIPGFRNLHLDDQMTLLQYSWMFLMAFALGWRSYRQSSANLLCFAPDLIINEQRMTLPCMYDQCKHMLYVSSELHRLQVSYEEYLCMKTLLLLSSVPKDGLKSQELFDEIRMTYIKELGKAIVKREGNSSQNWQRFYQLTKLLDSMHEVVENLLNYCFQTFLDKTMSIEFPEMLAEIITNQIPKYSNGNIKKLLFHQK
Description: Example A: […] GR Luciferase Assay Cell Line: CHO/GR/MMTV Luciferase Culture Media: DMEM (with phenol red)+10% FBS Assay Media: DMEM (without phenol red)+10% CSS A 1×10 cm plate of cells was split into 2×15 cm plates in Assay Media (CSS). After 4 days, the cells in the Assay Media were collected and counted. Antagonist Assay: 1.5×10^4 cells per well were plated in a 384-well white walled TC plate in 20 ul of Assay Media containing 12.5 nM Dexamethasone (final concentration=10 nM). The plates were covered with film to avoid evaporation and placed in a TC incubator. Media/drug dilutions were prepared in Assay Media in 96-well sterile plates. 100 ul of Assay Media was distributed in aliquots into 96-well plates with an 8-Channel pipette (20-200 ul). 0.5 ul of 1000× concentration of compounds were added to the plates with 8-Channel pipette (0.5-10 ul). The plates were shaken for 15 seconds to mix. The film was removed from the 384-well plates with assay cells. 5 ul of media/drug dilutions were added to appropriate wells. The plates were covered with film to avoid evaporation and placed in a TC incubator overnight. After 16-18 h in the incubator, the plates were removed and sat at room temperature for 10 minutes to equilibrate. The Reagent Dispenser was setup to distribute 25 ul aliquots of OneGlo Luciferase Reagent (at room temperature) to each well of the 384-well plate using standard cassette. After OneGlo was added to the plates, the plates were shaken briefly, then incubated in the dark at room temperature for about 3 minutes. The plates were read using a Tecan or Promega luminometer. The ability of the compounds disclosed herein to inhibit GR activity was quantified and the respective IC50 value was determined. Table 3 provides the cellular IC50 values of various substituted steroidal compounds disclosed herein.

AR = AR agonism assay in LNAR reporter cell line; assay type: cell-based; conditions: for Relative Maximum Response to Mifepristone: LNAR cells (overexpressed AR, 4XARE-Luc), 10% CSS, 18-24 hrs, Mifepristone maximum response set to 1
Description: Example B: In Vitro AR Agonism Assay
The AR agonism assay was done in the LNAR reporter cell line which has overexpressed AR and 4XARE-Luc genes. This cell line is sensitive to even minor partial AR agonism activity in hormone-deprived media (CSS). The assays were done in RPMI (without phenol red)+10% CSS using 6000 LNAR cells/well in 384-well plates and compounds were incubated with cells in […] incubator for 18-24 hrs. OneGlo reagent (25 uL/well) was added and plates were read with luminometer within 3 minutes.
To gauge the AR partial agonism activity, Mifepristone is included as a standard in the assay. AR agonism assay results are quantified by determining the ratio of the maximum response of individual compounds to the maximum response of Mifepristone (arbitrarily set to 1). Values of Table 4 are reported as Relative Maximum Response to Mifepristone. This general trend of AR agonism was shown for the class of compounds described herein.

SMILES | IC50 (GR) [µM] | Relative Maximum Response to Mifepristone (AR) | partial AR agonism (AR; in concentrations as low as 10 nM)
CC#C[C@]1(O)CC[C@H]2[C@@H]3CCC4=CC(=O)CC[C@]4(C)[C@H]3[C@@H](c3ccc(N(C)C(C)C)cc3)C[C@@]21C [Compound 19] | > 0.1 | A (A: ≤ 0.4) | 
CCN(CC)c1ccc([C@H]2C[C@@]3(C)[C@@H](CC[C@@]3(O)C#CC(C)(C)C)[C@@H]3CCC4=CC(=O)CC[C@@H]4[C@H]32)cc1 [Compound 9, (8R,9S,10R,11S,13S,14S,17S)-11-(4-(Diethylamino)phenyl)-17-(3,3-dimethylbut-1-yn-1-yl)-17-hydroxy-13-methyl-1,2,6,7,8,9,10,11,12,13,14,15,16,17-tetradecahydro-3H-cyclopenta[a]phenanthren-3-one] | ≤ 0.1 |  | 
CC(C)N(C)c1ccc([C@H]2C[C@@]3(C)[C@@H](CC[C@@]3(O)C#CC(C)(C)C)[C@@H]3CCC4=CC(=O)CC[C@@H]4[C@H]32)cc1F [Compound 15, (8R,9S,10R,11S,13S,14S,17S)-17-(3,3-Dimethylbut-1-yn-1-yl)-11-(3-fluoro-4-(isopropyl(methyl)amino)phenyl)-17-hydroxy-13-methyl-1,2,6,7,8,9,10,11,12,13,14,15,16,17-tetradecahydro-3H-cyclopenta[a]phenanthren-3-one] | ≤ 0.1 |  | 
CC(C)N(C)c1ccc([C@H]2C[C@@]3(C)[C@@H](CC[C@@]3(O)C#CC3CC3)[C@@H]3CCC4=CC(=O)CC[C@]4(C)[C@H]32)cc1 [Compound 21, (8S,9R,10R,11S,13S,14S,17S)-17-(Cyclopropylethynyl)-17-hydroxy-11-(4-(isopropyl(methyl)amino)phenyl)-10,13-dimethyl-1,2,6,7,8,9,10,11,12,13,14,15,16,17-tetradecahydro-3H-cyclopenta[a]phenanthren-3-one] | ≤ 0.1 | A (A: ≤ 0.4) | 
CC(C)N(C)c1ccc([C@H]2C[C@@]3(C)[C@@H](CC(C)[C@@]3(O)C#CC(C)(C)C)[C@@H]3CCC4=CC(=O)CC[C@@H]4[C@H]32)cc1 (single isomer, unassigned) [Compound 8] | ≤ 0.1 | A (A: ≤ 0.4) | 
CC(C)Nc1ccc([C@H]2C[C@@]3(C)[C@@H](CC[C@@]3(O)C#CC3CC3)[C@@H]3CCC4=CC(=O)CC[C@]4(C)[C@H]32)cc1 [Compound 18] | ≤ 0.1 | A (A: ≤ 0.4) | 
CC#C[C@]1(O)CC[C@H]2[C@@H]3CCC4=CC(=O)CCC4=C3[C@@H](c3ccc(N(C)C)cc3)C[C@@]21C [Mifepristone, reference compound] |  |  | strong partial AR agonism
CC(C)(C)C#C[C@]1(O)CC[C@H]2[C@@H]3CCC4=CC(=O)CC[C@@H]4[C@H]3[C@@H](c3ccc4c(c3)OCCO4)C[C@@]21C [Compound 3, (8R,9S,10R,11S,13S,14S,17S)-11-(2,3-Dihydrobenzo[b][1,4]dioxin-6-yl)-17-(3,3-dimethylbut-1-yn-1-yl)-17-hydroxy-13-methyl-1,2,6,7,8,9,10,11,12,13,14,15,16,17-tetradecahydro-3H-cyclopenta[a]phenanthren-3-one] | ≤ 0.1 |  | 
CC(C)(C)C#C[C@]1(O)CC[C@H]2[C@@H]3CCC4=CC(=O)CC[C@@H]4[C@H]3[C@@H](c3ccc4c(c3)OCO4)C[C@@]21C [Compound 5, (8R,9S,10R,11S,13S,14S,17S)-11-(Benzo[d][1,3]dioxol-5-yl)-17-(3,3-dimethylbut-1-yn-1-yl)-17-hydroxy-13-methyl-1,2,6,7,8,9,10,11,12,13,14,15,16,17-tetradecahydro-3H-cyclopenta[a]phenanthren-3-one] | ≤ 0.1 |  | 
CC(C)(C)C#C[C@]1(O)CC[C@H]2[C@@H]3CCC4=CC(=O)CC[C@@H]4[C@H]3[C@@H](c3ccc(N)cc3)C[C@@]21C [Compound 13, (8R,9S,10R,11S,13S,14S,17S)-11-(4-Aminophenyl)-17-(3,3-dimethylbut-1-yn-1-yl)-17-hydroxy-13-methyl-1,2,6,7,8,9,10,11,12,13,14,15,16,17-tetradecahydro-3H-cyclopenta[a]phenanthren-3-one] | ≤ 0.1 |  | 

Further lines, with some results ahead:

IC50 (GR) [µM] | SMILES | Relative Maximum Response to Mifepristone (AR) | partial AR agonism (AR; in concentrations as low as 10 nM)
≤ 0.1 | C[C@]12CCC(=O)C=C1CC[C@@H]1[C@@H]2[C@@H](c2ccc(N3CCCC3)cc2)C[C@@]2(C)[C@H]1CC[C@@]2(O)C#CC(F)(F)F [Compound 29] |  | 
> 0.1 | CC#C[C@]1(O)CC[C@H]2[C@@H]3CCC4=CC(=O)CC[C@]4(C)[C@H]3[C@@H](c3ccc(N)cc3)C[C@@]21C [Compound 26, (8S,9R,10R,11S,13S,14S,17S)-11-(4-Aminophenyl)-17-hydroxy-10,13-dimethyl-17-(prop-1-yn-1-yl)-1,2,6,7,8,9,10,11,12,13,14,15,16,17-tetradecahydro-3H-cyclopenta[a]phenanthren-3-one] |  | 
≤ 0.1 | CC(=O)N1CCN(c2ccc([C@H]3C[C@@]4(C)[C@@H](CC[C@@]4(O)C#CC(C)(C)C)[C@@H]4CCC5=CC(=O)CC[C@@H]5[C@H]43)cc2)CC1 [Compound 24] |  | 
> 0.1 | CCC#C[C@]1(O)CC[C@H]2[C@@H]3CCC4=CC(=O)CC[C@]4(C)[C@H]3[C@@H](c3ccc(NC)cc3)C[C@@]21C [Compound 12] |  | 
> 0.1 | C[C@]12CCC(=O)C=C1CC[C@@H]1[C@@H]2[C@@H](c2ccc(N3CCCC3)cc2)C[C@@]2(C)[C@H]1CC[C@@]2(O)C#CC1CC1 [Compound 28] |  | 
> 0.1 | CC#C[C@]1(O)CC[C@H]2[C@@H]3CCC4=CC(=O)CC[C@]4(C)[C@H]3[C@@H](c3ccc(NC)cc3)C[C@@]21C [Compound 23] |  | 
> 0.1 | CC(C)N(C)c1ccc([C@H]2C[C@@]3(C)[C@@H](CC[C@@]3(O)C#CC(C)(C)C)[C@@H]3CCC4=CC(=O)CC[C@]4(C)[C@H]32)cc1 [Compound 16] |  | 
> 0.1 | CC#C[C@]1(O)CC[C@H]2[C@@H]3CCC4=CC(=O)CC[C@]4(C)[C@H]3[C@@H](c3ccc(NC(C)C)cc3)C[C@@]21C [Compound 30, (8S,9R,10R,11S,13S,14S,17S)-17-Hydroxy-11-(4-(isopropylamino)phenyl)-10,13-dimethyl-17-(prop-1-yn-1-yl)-1,2,6,7,8,9,10,11,12,13,14,15,16,17-tetradecahydro-3H-cyclopenta[a]phenanthren-3-one] |  | 
≤ 0.1 | CC(C)(C)C#C[C@]1(O)CC[C@H]2[C@@H]3CCC4=CC(=O)CC[C@@H]4[C@H]3[C@@H](c3ccc(N4CCN(S(C)(=O)=O)CC4)cc3)C[C@@]21C [Compound 27] |  | 
≤ 0.1 | CC#C[C@]1(O)CC[C@H]2[C@@H]3CCC4=CC(=O)CC[C@]4(C)[C@H]3[C@@H](c3ccc(-n4cccc4)cc3)C[C@@]21C [Compound 31, (8S,9R,10R,11S,13S,14S,17S)-11-(4-(1H-Pyrrol-1-yl)phenyl)-17-hydroxy-10,13-dimethyl-17-(prop-1-yn-1-yl)-1,2,6,7,8,9,10,11,12,13,14,15,16,17-tetradecahydro-3H-cyclopenta[a]phenanthren-3-one] |  | 
